Reference: ChEMBL document CHEMBL4000245, “Discovery and biological evaluation of some (1H-1,2,3-triazol-4-yl)methoxybenzaldehyde derivatives containing an anthraquinone moiety as potent xanthine oxidase inhibitors” (Bioorg Med Chem Lett, 2017)

Assays:
[1] = target: T1, Xanthine dehydrogenase/oxidase (Bos taurus, UniProt P80457); assay: Inhibition of bovine xanthine oxidase assessed as reduction in uric acid levels at 50 uM using xanthine as substrate after 120 mins by spectrophotometry; conditions: cattle, 2 h
T1 sequence (P80457 whole entry): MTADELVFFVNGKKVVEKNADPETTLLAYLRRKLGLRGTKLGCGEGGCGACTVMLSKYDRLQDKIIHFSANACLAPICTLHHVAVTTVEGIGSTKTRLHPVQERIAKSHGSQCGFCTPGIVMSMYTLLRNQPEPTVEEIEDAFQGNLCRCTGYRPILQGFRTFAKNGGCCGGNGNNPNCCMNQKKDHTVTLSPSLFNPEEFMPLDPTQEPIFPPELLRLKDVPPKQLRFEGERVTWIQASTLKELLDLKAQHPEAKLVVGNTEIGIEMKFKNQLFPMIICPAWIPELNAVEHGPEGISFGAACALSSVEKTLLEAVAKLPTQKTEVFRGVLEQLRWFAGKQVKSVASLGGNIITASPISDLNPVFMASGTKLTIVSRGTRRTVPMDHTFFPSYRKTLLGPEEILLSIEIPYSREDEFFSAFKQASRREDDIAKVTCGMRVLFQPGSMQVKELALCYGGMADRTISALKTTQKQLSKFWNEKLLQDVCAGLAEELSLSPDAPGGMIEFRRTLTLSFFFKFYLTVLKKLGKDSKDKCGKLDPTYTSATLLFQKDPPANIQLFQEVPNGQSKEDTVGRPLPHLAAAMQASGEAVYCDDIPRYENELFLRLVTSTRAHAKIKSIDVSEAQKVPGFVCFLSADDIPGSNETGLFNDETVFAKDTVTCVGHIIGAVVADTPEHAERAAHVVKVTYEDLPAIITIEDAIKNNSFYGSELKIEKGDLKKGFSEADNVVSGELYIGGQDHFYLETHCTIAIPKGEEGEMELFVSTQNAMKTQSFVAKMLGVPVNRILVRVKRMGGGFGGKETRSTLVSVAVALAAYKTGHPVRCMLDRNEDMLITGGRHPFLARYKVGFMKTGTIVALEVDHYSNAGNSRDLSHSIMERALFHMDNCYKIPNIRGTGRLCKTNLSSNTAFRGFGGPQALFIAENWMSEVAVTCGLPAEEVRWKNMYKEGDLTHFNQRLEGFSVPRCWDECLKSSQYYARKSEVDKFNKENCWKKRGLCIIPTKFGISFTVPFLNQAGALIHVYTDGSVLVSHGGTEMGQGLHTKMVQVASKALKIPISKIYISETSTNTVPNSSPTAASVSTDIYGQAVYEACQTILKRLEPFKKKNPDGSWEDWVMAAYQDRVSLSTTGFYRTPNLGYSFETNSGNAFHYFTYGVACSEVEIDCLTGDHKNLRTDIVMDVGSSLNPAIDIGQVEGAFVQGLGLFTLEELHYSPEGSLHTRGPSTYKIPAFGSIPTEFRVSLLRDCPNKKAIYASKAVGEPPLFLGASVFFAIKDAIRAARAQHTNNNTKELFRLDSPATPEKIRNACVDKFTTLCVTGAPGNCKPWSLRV

[2] = target: T1, Xanthine dehydrogenase/oxidase; assay: Inhibition of bovine xanthine oxidase assessed as reduction in uric acid levels using xanthine as substrate after 120 mins by spectrophotometry
[3] = target: T1, Xanthine dehydrogenase/oxidase; assay: Potency index, ratio of allopurinol IC50 to compound IC50 for inhibition of bovine xanthine oxidase; conditions: cattle
[4] = target: T1, Xanthine dehydrogenase/oxidase; assay: Mixed-type inhibition of bovine xanthine oxidase assessed as enzyme-inhibitor complex using xanthine as substrate after 60 secs by Lineweaver-Burk plot method
[5] = target: T1, Xanthine dehydrogenase/oxidase; assay: Mixed-type inhibition of bovine xanthine oxidase assessed as enzyme-inhibitor-substrate complex using xanthine as substrate after 60 secs by Lineweaver-Burk plot method

Row | Compound | inhibition at 50 µM [1] | IC50 [2] | other results
1 | O=Cc1ccccc1OCc1cn(Cc2ccc3c(c2)C(=O)c2ccccc2C3=O)nn1 | 90.7% | 0.6 µM | Ratio IC50 [3]: > 10; Ki [4]: 570 nM; Ki [5]: 940 nM
2 | CCCCCCn1cc(COc2ccccc2C=O)nn1 | 43.5% |  | 
3 | O=Cc1ccc(OCc2cn(Cc3ccc4c(c3)C(=O)c3ccccc3C4=O)nn2)cc1 | 67.5% | 30.5 µM | 
4 | O=Cc1cc(Br)ccc1OCc1cn(Cc2ccc3c(c2)C(=O)c2ccccc2C3=O)nn1 | 21.1% |  | 
5 | COc1cc(C=O)cc(OC)c1OCc1cn(Cc2ccc3c(c2)C(=O)c2ccccc2C3=O)nn1 | 70.3% | 16.8 µM | 
6 | N#Cc1ccc(OCc2cn(Cc3ccc4c(c3)C(=O)c3ccccc3C4=O)nn2)cc1 | 7% |  | 
7 | O=Cc1cc(F)ccc1OCc1cn(Cc2ccc3c(c2)C(=O)c2ccccc2C3=O)nn1 | 88% | 0.8 µM | Ratio IC50 [3]: > 10
8 | O=C1c2ccccc2C(=O)c2cc(Cn3cc(CO)nn3)ccc21 | 31% |  | 
9 | Oc1ncnc2[nH]ncc12 [ALLOPURINOL] | 95.1% |  | 
10 | CC(=O)Nc1ccc(OCc2cn(Cc3ccc4c(c3)C(=O)c3ccccc3C4=O)nn2)cc1 | 20.1% |  | 
11 | O=Cc1cc(F)ccc1OCc1cn(Cc2ccccc2)nn1 | 83.4% | 21.5 µM | 
12 | O=Cc1ccc(F)cc1OCc1cn(Cc2ccc3c(c2)C(=O)c2ccccc2C3=O)nn1 | 70.8% | 6.5 µM | 
13 | O=C1c2ccccc2C(=O)c2cc(Cn3cc(COc4c(Cl)cccc4Cl)nn3)ccc21 | 12.7% |  | 
14 | O=Cc1cc(Cl)ccc1OCc1cn(Cc2ccc3c(c2)C(=O)c2ccccc2C3=O)nn1 | 61.1% | 46.5 µM | 
15 | CC(=O)OCc1cn(Cc2ccc3c(c2)C(=O)c2ccccc2C3=O)nn1 | 19.4% |  | 
16 | O=C1c2ccccc2C(=O)c2cc(Cn3cc(COc4ccccc4)nn3)ccc21 | 18.4% |  | 
17 | CCN(CC)c1ccc(C=O)c(OCc2cn(Cc3ccc4c(c3)C(=O)c3ccccc3C4=O)nn2)c1 | 9.8% |  | 
18 | O=Cc1cccc(OCc2cn(Cc3ccc4c(c3)C(=O)c3ccccc3C4=O)nn2)c1 | 77.2% | 15.1 µM | 
19 | CCCCCCn1cc(COc2ccc(F)cc2C=O)nn1 | 93% | 9 µM | 
20 | O=C(O)c1ccccc1OCc1cn(Cc2ccc3c(c2)C(=O)c2ccccc2C3=O)nn1 | 24.2% |  | 
21 | O=Cc1ccccc1OCc1cn(Cc2ccccc2)nn1 | 46.7% |  | 
